Laboratory results from patent publication US9499550B2 (BRISTOL-MYERS SQUIBB COMPANY, priority 2012, dated 2016).
Read-outs that look alike come from different tables or passages of the source.

Experiments:
[1] = tested on: HCV genotype 1a (H77 strain) replicon in HUH-7 cells; experiment: HCV replicon luciferase reporter assay, genotype 1a; format: cell-based; details: Hepatitis C virus, Huh-7, 72 h, HCV genotype 1a replicon luciferase, 3 days incubation, read-out: LE_1a (EC50, range)
Outline: (§1)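 Replicon inhibition for both genotypes was measured as Renilla luciferase signal (EnduRen, 7.5 μM final, 2 h) after 3-day, 37° C exposure of replicon-bearing HUH-7 cells in 4% FCS DMEM, 0.5% DMSO. The 1b construct carries S1179I; the 1a H77 construct carries P1496L and S2204I. Twenty-point, 3-fold dilutions were fitted four-parametrically for EC50, and CC50 was taken from multiplexed Cell Titer-Blue.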

[2] = tested on: HCV genotype 1b (Con1) replicon in HUH-7 cells; experiment: HCV replicon luciferase reporter assay, genotype 1b; format: cell-based; details: Hepatitis C virus, Huh-7, 72 h, HCV genotype 1b replicon luciferase, 3 days incubation, read-out: LE_1b (EC50, range)
Outline: as §1

Compound	EC50 [1] [nM]	EC50 [2] [nM]	EC50 ([1]; GETYPE1A) [nM]	EC50 ([2]; GETYPE1B) [nM]
COc1ccc2c(O[C@@H]3C[C@H]4C(=O)N[C@]5(C(=O)NS(=O)(=O)C6(C)CC6)C[C@H]5/C=C\CC[C@@H](C)C[C@@H](C)[C@H](NC(=O)OC(C)(C)C)C(=O)N4C3)nc(-c3ccc(OC(C)C)cc3)cc2c1 [Compound 4063, tert-butyl (2R,6S,7R,9R,13aS,14aR,16aS,Z)-2-(3-(4-isopropoxyphenyl)-6-methoxyisoquinolin-1-yloxy)-7,9-dimethyl-14a-(1-methylcyclopropylsulfonylcarbamoyl)-5,16-dioxo-1,2,3,5,6,7,8,9,10,11,13a,14,14a,15,16,16a-hexadecahydrocyclopropa[e]pyrrolo[1,2-a][1,4]diazacyclopentadecin-6-ylcarbamate]	< 5.46	< 5.46	–	–
COc1ccc2c(O[C@@H]3C[C@H]4C(=O)N[C@]5(C(=O)NS(=O)(=O)C6(C)CC6)C[C@H]5/C=C\CC[C@@H](C)C[C@@H](C)[C@H](NC(=O)OC(C)(C)C(F)(F)F)C(=O)N4C3)nc(-c3ccc(OC(C)C)cc3)cc2c1 [Compound 4064]	–	–	< 5.46	< 5.46
COc1cnc(O[C@@H]2C[C@H]3C(=O)N[C@]4(C(=O)NS(=O)(=O)C5(C)CC5)C[C@H]4/C=C\CC[C@@H](C)C[C@@H](C)[C@H](NC(=O)OC(C)(C)C(F)(F)F)C(=O)N3C2)c2cccc(Cl)c12 [Compound 4065]	–	–	< 5.46	< 5.46
CCOc1cnc(O[C@@H]2C[C@H]3C(=O)N[C@]4(C(=O)NS(=O)(=O)C5(C)CC5)C[C@H]4/C=C\CC[C@@H](C)C[C@@H](C)[C@H](NC(=O)O[C@H](C)C(F)(F)F)C(=O)N3C2)c2ccccc12 [Compound 4066, (R)-1,1,1-trifluoropropan-2-yl (2R,6S,7R,9R,13aS,14aR,16aS,Z)-2-(4-ethoxyisoquinolin-1-yloxy)-7,9-dimethyl-14a-(1-methylcyclopropylsulfonylcarbamoyl)-5,16-dioxo-1,2,3,5,6,7,8,9,10,11,13a,14,14a,15,16,16a-hexadecahydrocyclopropa[e]pyrrolo[1,2-a][1,4]diazacyclopentadecin-6-ylcarbamate]	< 5.46	< 5.46	–	–
C[C@@H]1CC/C=C\[C@@H]2C[C@@]2(C(=O)NS(=O)(=O)C2CC2)NC(=O)[C@@H]2C[C@@H](Oc3ncc(OCC4CC4)c4ccc(F)cc34)CN2C(=O)[C@@H](NC(=O)OC(C)(C)C(F)(F)F)[C@H](C)C1 [Compound 4067]	–	–	4.82 to 103	< 5.46
COc1cnc(O[C@@H]2C[C@H]3C(=O)N[C@]4(C(=O)NS(=O)(=O)C5(F)CC5)C[C@H]4/C=C\CC[C@@H](C)C[C@@H](C)[C@H](NC(=O)OC(C)(C)C(F)(F)F)C(=O)N3C2)c2cc(F)ccc12 [Compound 4068]	–	–	< 5.46	< 5.46
COc1cc2ccnc(O[C@@H]3C[C@H]4C(=O)N[C@]5(C(=O)NS(=O)(=O)C6(F)CC6)C[C@H]5/C=C\CC[C@@H](C)C[C@@H](C)[C@H](NC(=O)OC(C)(C)C(F)(F)F)C(=O)N4C3)c2cc1F [Compound 4069]	–	–	< 5.46	< 5.46
COc1cc2c(OC)cnc(O[C@@H]3C[C@H]4C(=O)N[C@]5(C(=O)NS(=O)(=O)C6(C)CC6)C[C@H]5/C=C\CC[C@@H](C)C[C@@H](C)[C@H](NC(=O)OC(C)(C)C)C(=O)N4C3)c2cc1F [Compound 4070, tert-butyl (2R,6S,7R,9R,13aS,14aR,16aS,Z)-2-(7-fluoro-4,6-dimethoxyisoquinolin-1-yloxy)-7,9-dimethyl-14a-(1-methylcyclopropylsulfonylcarbamoyl)-5,16-dioxo-1,2,3,5,6,7,8,9,10,11,13a,14,14a,15,16,16a-hexadecahydrocyclopropa[e]pyrrolo[1,2-a][1,4]diazacyclopentadecin-6-ylcarbamate]	< 5.46	< 5.46	–	–
C[C@@H]1CC/C=C\[C@@H]2C[C@@]2(C(=O)NS(=O)(=O)C2CC2)NC(=O)[C@@H]2C[C@@H](Oc3nccc4ccc(F)cc34)CN2C(=O)[C@@H](NC(=O)OC(C)(C)C)[C@H](C)C1 [Compound 4071, tert-butyl (2R,6S,7R,9R,13aS,14aR,16aS,Z)-14a-(cyclopropylsulfonylcarbamoyl)-2-(7-fluoroisoquinolin-1-yloxy)-7,9-dimethyl-5,16-dioxo-1,2,3,5,6,7,8,9,10,11,13a,14,14a,15,16,16a-hexadecahydrocyclopropa[e]pyrrolo[1,2-a][1,4]diazacyclopentadecin-6-ylcarbamate]	< 5.46	< 5.46	–	–
C[C@@H]1CC/C=C\[C@@H]2C[C@@]2(C(=O)NS(=O)(=O)C2CC2)NC(=O)[C@@H]2C[C@@H](Oc3nccc4ccc(F)cc34)CN2C(=O)[C@@H](NC(=O)OC2(C)CC2)[C@H](C)C1 [Compound 4073, 1-methylcyclopropyl (2R,6S,7R,9R,13aS,14aR,16aS,Z)-14a-(cyclopropylsulfonylcarbamoyl)-2-(7-fluoroisoquinolin-1-yloxy)-7,9-dimethyl-5,16-dioxo-1,2,3,5,6,7,8,9,10,11,13a,14,14a,15,16,16a-hexadecahydrocyclopropa[e]pyrrolo[1,2-a][1,4]diazacyclopentadecin-6-ylcarbamate]	< 5.46	< 5.46	–	–
COc1cc2c(OC)cnc(O[C@@H]3C[C@H]4C(=O)N[C@]5(C(=O)NS(=O)(=O)C6CC6)C[C@H]5/C=C\CC[C@@H](C)C[C@@H](C)[C@H](NC(=O)OC(C)(C)C)C(=O)N4C3)c2cc1F [Compound 4074, tert-butyl (2R,6S,7R,9R,13aS,14aR,16aS,Z)-14a-(cyclopropylsulfonylcarbamoyl)-2-(7-fluoro-4,6-dimethoxyisoquinolin-1-yloxy)-7,9-dimethyl-5,16-dioxo-1,2,3,5,6,7,8,9,10,11,13a,14,14a,15,16,16a-hexadecahydrocyclopropa[e]pyrrolo[1,2-a][1,4]diazacyclopentadecin-6-ylcarbamate]	< 5.46	< 5.46	–	–
CCOc1cnc(O[C@@H]2C[C@H]3C(=O)N[C@]4(C(=O)NS(=O)(=O)C5(C)CC5)C[C@H]4/C=C\CC[C@@H](C)C[C@@H](C)[C@H](NC(=O)OC(C)(C)C)C(=O)N3C2)c2cc(Cl)ccc12 [Compound 4075, tert-butyl (2R,6S,7R,9R,13aS,14aR,16aS,Z)-2-(7-chloro-4-ethoxyisoquinolin-1-yloxy)-7,9-dimethyl-14a-(1-methylcyclopropylsulfonylcarbamoyl)-5,16-dioxo-1,2,3,5,6,7,8,9,10,11,13a,14,14a,15,16,16a-hexadecahydrocyclopropa[e]pyrrolo[1,2-a][1,4]diazacyclopentadecin-6-ylcarbamate]	< 5.46	< 5.46	–	–
CCOc1cnc(O[C@@H]2C[C@H]3C(=O)N[C@]4(C(=O)NS(=O)(=O)C5(C)CC5)C[C@H]4/C=C\CC[C@@H](C)C[C@@H](C)[C@H](NC(=O)OC(C)(C)C(F)(F)F)C(=O)N3C2)c2cc(Cl)ccc12 [Compound 4076]	–	–	< 5.46	< 5.46
CCC1(S(=O)(=O)NC(=O)[C@@]23C[C@H]2/C=C\CC[C@@H](C)C[C@@H](C)[C@H](NC(=O)OC(C)(C)C(F)(F)F)C(=O)N2C[C@H](Oc4nccc5cc(OC)ccc45)C[C@H]2C(=O)N3)CC1 [Compound 4077]	–	–	< 5.46	< 5.46
COc1ccc2c(O[C@@H]3C[C@H]4C(=O)N[C@]5(C(=O)NS(=O)(=O)C6(C)CC6)C[C@H]5/C=C\CC[C@@H](C)C[C@@H](C)[C@H](NC(=O)OC(C)(C)C)C(=O)N4C3)nc(-c3ccc(C(C)(C)C)cc3)cc2c1 [Compound 4078, tert-butyl (2R,6S,7R,9R,13aS,14aR,16aS,Z)-2-(3-(4-tert-butylphenyl)-6-methoxyisoquinolin-1-yloxy)-7,9-dimethyl-14a-(1-methylcyclopropylsulfonylcarbamoyl)-5,16-dioxo-1,2,3,5,6,7,8,9,10,11,13a,14,14a,15,16,16a-hexadecahydrocyclopropa[e]pyrrolo[1,2-a][1,4]diazacyclopentadecin-6-ylcarbamate]	4.82 to 103	4.82 to 103	–	–
COc1ccc2c(O[C@@H]3C[C@H]4C(=O)N[C@]5(C(=O)NS(=O)(=O)C6(C)CC6)C[C@H]5/C=C\CC[C@@H](C)C[C@@H](C)[C@H](NC(=O)OC(C)(C)C(F)(F)F)C(=O)N4C3)nc(-c3ccc(C(C)(C)C)cc3)cc2c1 [Compound 4079]	–	–	4.82 to 103	4.82 to 103
COc1ccc2c(O[C@@H]3C[C@H]4C(=O)N[C@]5(C(=O)NS(=O)(=O)C6(C)CC6)C[C@H]5/C=C\CC[C@@H](C)C[C@@H](C)[C@H](NC(=O)OC(C)(C)C)C(=O)N4C3)ncc(OC)c2c1 [Compound 4080, tert-butyl (2R,6S,7R,9R,13aS,14aR,16aS,Z)-2-(4,6-dimethoxyisoquinolin-1-yloxy)-7,9-dimethyl-14a-(1-methylcyclopropylsulfonylcarbamoyl)-5,16-dioxo-1,2,3,5,6,7,8,9,10,11,13a,14,14a,15,16,16a-hexadecahydrocyclopropa[e]pyrrolo[1,2-a][1,4]diazacyclopentadecin-6-ylcarbamate]	< 5.46	< 5.46	–	–
COc1ccc2c(O[C@@H]3C[C@H]4C(=O)N[C@]5(C(=O)NS(=O)(=O)C6(C)CC6)C[C@H]5/C=C\CC[C@@H](C)C[C@@H](C)[C@H](NC(=O)OC(C)(C)C(F)(F)F)C(=O)N4C3)ncc(OC)c2c1 [Compound 4081]	–	–	< 5.46	< 5.46
